Results as given in ChEMBL document CHEMBL1201862, “PubChem BioAssay data set” (2004).
Calls of active or inactive are those of the source.

How the values were obtained:
[1] = system: H9c2; test: cells; assay type: functional, cell-based; conditions: Rattus norvegicus, H9c2, Myocardium;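 further: confirmatory concentration-response retest of ultra-high-throughput screening hits for modulation of myocardial damage; cell death induced by hydrogen peroxide oxidative stress; compound pretreatment for 60 min then peroxide exposure for 2 h; potency is for protecting the cells against peroxide damage rather than for killing them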
[2] = biological target: T1, Protein RecA (Mycobacterium tuberculosis, UniProt P9WHJ3); test: Fluorescence Cell-Free Homogeneous Dose Retest to Identify Inhibitors of RecA-Intein Splicing Activity. [Related pubchem assays (depositor defined):AID2097, AID2223, AID489010, AID492950]; assay type: functional
T1 sequence (P9WHJ3 whole entry): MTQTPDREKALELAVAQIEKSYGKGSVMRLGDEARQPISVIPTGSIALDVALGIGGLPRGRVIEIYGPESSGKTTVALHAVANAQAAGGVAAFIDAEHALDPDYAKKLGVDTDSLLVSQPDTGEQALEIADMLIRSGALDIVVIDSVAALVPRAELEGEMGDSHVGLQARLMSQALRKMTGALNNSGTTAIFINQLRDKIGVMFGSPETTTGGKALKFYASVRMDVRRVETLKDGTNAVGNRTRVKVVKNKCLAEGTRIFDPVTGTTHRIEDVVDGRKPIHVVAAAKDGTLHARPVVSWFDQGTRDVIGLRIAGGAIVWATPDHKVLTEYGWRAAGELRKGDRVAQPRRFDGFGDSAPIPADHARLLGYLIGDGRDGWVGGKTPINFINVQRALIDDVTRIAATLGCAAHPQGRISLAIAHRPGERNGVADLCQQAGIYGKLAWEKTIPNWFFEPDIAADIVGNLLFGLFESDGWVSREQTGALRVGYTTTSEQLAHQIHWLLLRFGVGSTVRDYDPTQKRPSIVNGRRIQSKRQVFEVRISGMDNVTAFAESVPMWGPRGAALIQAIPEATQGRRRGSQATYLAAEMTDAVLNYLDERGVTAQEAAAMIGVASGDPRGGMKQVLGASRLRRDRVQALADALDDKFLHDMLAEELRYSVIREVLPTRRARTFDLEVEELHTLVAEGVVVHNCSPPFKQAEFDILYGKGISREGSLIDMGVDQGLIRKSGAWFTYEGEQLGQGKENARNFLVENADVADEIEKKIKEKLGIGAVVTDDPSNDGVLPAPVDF

[3] = biological target: T2, Replicative DNA helicase DnaB (Mycobacterium tuberculosis, UniProt P9WMR3); test: DnaB intein splicing inhibitors, dose response, biochemical, cell-free fluorescence (AID 449749); assay type: functional
T2 sequence (P9WMR3 whole entry): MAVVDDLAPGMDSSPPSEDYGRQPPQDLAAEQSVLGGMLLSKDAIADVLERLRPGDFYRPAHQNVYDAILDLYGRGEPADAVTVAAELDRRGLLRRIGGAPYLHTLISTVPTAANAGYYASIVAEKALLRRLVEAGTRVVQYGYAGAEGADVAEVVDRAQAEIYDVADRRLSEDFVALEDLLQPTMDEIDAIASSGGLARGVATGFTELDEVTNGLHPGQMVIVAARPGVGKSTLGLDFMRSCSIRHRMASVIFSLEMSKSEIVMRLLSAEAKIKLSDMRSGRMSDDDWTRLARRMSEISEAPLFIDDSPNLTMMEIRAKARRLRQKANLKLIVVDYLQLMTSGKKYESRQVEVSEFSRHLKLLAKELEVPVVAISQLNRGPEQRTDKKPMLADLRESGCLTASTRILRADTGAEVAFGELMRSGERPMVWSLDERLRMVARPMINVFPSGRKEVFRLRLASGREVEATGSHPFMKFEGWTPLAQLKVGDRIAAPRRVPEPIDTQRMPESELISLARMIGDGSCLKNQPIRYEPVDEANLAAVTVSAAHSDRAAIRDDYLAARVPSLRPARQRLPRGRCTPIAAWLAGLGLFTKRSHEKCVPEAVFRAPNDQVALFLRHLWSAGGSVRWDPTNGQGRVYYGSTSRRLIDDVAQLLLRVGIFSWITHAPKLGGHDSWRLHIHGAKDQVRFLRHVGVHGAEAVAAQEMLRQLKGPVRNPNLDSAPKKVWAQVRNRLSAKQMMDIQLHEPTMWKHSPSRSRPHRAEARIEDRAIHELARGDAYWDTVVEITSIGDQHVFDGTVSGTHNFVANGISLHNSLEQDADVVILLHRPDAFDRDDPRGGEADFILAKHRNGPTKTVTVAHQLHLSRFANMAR

[4] = biological target: T3, Heat shock factor protein 1 (Mus musculus, UniProt P38532); test: inhibition of MG132-induced HSE-luciferase signal, confirmation, cell-based, NIH3T3, luminescence, dose retest (AID 2382); assay type: functional;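 further: NIH3T3 fibroblasts with HSF1-driven luciferase reporter stressed by proteasome inhibitor MG132; luminescence from HSF1-driven luciferase expression after 8 hours of MG132 stress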
T3 sequence (P38532 whole entry): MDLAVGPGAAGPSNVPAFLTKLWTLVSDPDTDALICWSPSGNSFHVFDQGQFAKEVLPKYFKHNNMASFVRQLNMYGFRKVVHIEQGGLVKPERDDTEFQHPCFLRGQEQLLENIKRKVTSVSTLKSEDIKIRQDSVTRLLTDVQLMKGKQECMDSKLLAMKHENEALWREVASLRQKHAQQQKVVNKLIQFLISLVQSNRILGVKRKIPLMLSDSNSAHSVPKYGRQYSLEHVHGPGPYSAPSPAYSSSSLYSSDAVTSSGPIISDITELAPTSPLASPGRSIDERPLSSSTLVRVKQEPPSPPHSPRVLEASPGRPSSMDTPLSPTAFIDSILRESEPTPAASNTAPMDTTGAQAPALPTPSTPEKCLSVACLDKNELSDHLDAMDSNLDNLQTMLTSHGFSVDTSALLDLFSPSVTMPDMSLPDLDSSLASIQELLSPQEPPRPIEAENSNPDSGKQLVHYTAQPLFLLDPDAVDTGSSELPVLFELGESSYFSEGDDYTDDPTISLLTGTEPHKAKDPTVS

[5] = biological target: T4, Corticotropin-releasing factor receptor 2/Corticotropin-releasing factor-binding protein (Homo sapiens, UniProt P24387+Q13324); test: activators of CRF receptor 2 with binding protein – uHTS hits, confirmation (AID 602473); assay type: functional; conditions: read-out: EC50_Mean
T4 sequence (Q13324 whole entry): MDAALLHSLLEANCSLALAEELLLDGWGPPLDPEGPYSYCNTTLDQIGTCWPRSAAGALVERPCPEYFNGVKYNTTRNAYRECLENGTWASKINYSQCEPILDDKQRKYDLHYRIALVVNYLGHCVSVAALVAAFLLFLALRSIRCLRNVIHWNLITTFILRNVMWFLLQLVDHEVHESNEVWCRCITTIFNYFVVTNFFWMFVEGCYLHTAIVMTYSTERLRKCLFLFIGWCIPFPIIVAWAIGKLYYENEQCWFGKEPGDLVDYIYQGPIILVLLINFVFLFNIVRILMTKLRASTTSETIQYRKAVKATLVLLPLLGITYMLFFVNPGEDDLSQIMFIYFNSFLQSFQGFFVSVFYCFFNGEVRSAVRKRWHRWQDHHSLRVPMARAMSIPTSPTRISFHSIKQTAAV
T4 sequence (P24387 whole entry): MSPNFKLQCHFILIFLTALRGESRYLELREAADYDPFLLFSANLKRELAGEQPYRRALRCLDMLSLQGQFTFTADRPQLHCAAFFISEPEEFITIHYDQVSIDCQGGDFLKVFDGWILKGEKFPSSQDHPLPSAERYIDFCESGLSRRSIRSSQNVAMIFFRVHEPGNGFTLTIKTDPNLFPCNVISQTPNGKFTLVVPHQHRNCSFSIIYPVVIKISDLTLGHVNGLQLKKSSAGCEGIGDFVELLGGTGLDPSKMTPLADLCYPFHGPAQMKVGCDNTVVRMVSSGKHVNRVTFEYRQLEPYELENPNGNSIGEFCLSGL

[6] = biological target: T4, Corticotropin-releasing factor receptor 2/Corticotropin-releasing factor-binding protein; test: Dose Response confirmation of uHTS hits for small molecule antagonists of the CRF-binding protein and CRF-R2 receptor complex.; assay type: functional; conditions: read-out: IC50_Mean
[7] = biological target: Paired box protein Pax-8 (Homo sapiens, UniProt Q06710); test: inhibitors of PAX8-driven TPO luciferase reporter, dose response, RMG-I cells, cherry-pick (AID 687027); assay type: functional, cell-based;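 further: luciferase reporter driven by Pax8 target thyroperoxidase promoter measured by SteadyGlo luminescence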
Paired box protein Pax-8, sequence (Q06710 whole entry): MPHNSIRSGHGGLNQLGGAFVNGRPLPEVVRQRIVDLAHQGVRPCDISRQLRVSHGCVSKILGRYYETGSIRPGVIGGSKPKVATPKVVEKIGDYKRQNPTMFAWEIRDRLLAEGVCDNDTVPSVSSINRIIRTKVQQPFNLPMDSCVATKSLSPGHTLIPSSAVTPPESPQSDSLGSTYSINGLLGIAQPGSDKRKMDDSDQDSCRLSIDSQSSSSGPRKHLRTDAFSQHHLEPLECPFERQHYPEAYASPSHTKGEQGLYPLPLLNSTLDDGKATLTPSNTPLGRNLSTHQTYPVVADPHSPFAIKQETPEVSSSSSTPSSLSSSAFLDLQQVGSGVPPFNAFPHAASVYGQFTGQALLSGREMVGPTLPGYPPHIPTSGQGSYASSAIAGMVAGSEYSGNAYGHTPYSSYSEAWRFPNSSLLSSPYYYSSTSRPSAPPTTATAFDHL

CCOC(=O)C1=C(COC(=O)/C=C/c2ccc(F)cc2)NC(=O)NC1C (configuration not stated)
IC50 [1]: > 79 µM (inactive)

NC(=O)c1nsc(C(=O)N(c2ccccc2)C(C(=O)NC2CCCC2)c2ccc3ncccc3c2)c1N (configuration not stated)
IC50 [1]: > 79 µM (inactive)

COC(=O)c1c(NC(=O)/C=C/C(=O)O)sc(C)c1-c1ccc(C)cc1
EC50 [2]: 11.1 µM (active)
AC50 [3]: 33.7 µM (active)

COc1cc2c(cc1OC)C(C(=O)NC1CC1)C1c3ccccc3CCN1C2=O (configuration not stated)
EC50 [4]: > 195 µM (not active)

CN(C)C(=O)/C=C\c1cn(-c2ccccc2)nc1-c1ccc2c(c1)OCCO2
IC50 [1]: > 79 µM (inactive)

COc1ccc(-c2cc(NC=O)c3ncc(-c4ccc(C(C)=O)cc4)n3c2)cn1
IC50 [1]: > 79 µM (inactive)

CCOC(=O)c1ccc(NC(=S)Nc2ccccc2N)cc1
EC50 [4]: > 195 µM (not active)

CCn1cc(C(=O)Nc2cccc(NC(C)=O)c2)c2cc(OC)c(OC)cc2c1=O
IC50 [1]: 20.3 µM (active)

Cn1c2c(c(=O)n(C)c1=O)C(c1cccc([N+](=O)[O-])c1)Nc1ccccc1O2 (configuration not stated)
IC50 [1]: > 79 µM (inactive)

CCOC(=O)c1c(NC(=O)CCl)sc(C(=O)N(CC)CC)c1C
EC50 [2]: 43.6 µM (active)
AC50 [3]: 2.19 µM (active)

CC(OC(=O)Cn1[nH]c(=O)c2ccccc2c1=O)C(=O)Nc1ccccc1[N+](=O)[O-] (configuration not stated)
IC50 [1]: > 79 µM (inactive)

Cc1ccc(N2C(=O)CC(=O)NC2=O)c(C)c1
EC50 [5]: > 53 µM (inactive)
IC50 [6]: > 47.1 µM (inactive)

Cc1noc(C)c1COC(=O)COc1ccc2c(C)cc(=O)oc2c1
IC50 [1]: 13.5 µM (active)

CCc1ccccc1-n1c(SCC(=O)Nc2ccc3c(c2)OCCO3)nc2nncc-2c1O
EC50 [4]: 3.04 µM (active)

COc1ccc(CCNC(=O)c2ccc(N(C)S(=O)(=O)c3ccc(C)cc3)cc2)cc1
EC50 [4]: > 195 µM (not active)

c1ccc(-c2ccc(C3CCCN3)cc2)cc1 (configuration not stated)
EC50 [2]: > 380 µM (inactive)
AC50 [3]: > 380 µM (inactive)

CN(Cc1ccccn1)C(=O)C1CCC(=O)N(Cc2cccc(C(F)(F)F)c2)C1 (configuration not stated)
EC50 [5]: > 53 µM (inactive)
IC50 [6]: > 47.1 µM (inactive)

O=C(Nc1cccc(F)c1)N1CCC(c2ccccc2)CC1
EC50 [2]: > 380 µM (inactive)
AC50 [3]: 53.5 µM (active)

Clc1ccc(-c2nnc(Sc3nc4ccccc4o3)c3ccccc23)cc1
EC50 [2]: 0.405 µM (active)
AC50 [3]: 1.58 µM (active)

O=C1NC(=O)c2c(Br)c(Br)c(Br)c(Br)c21
IC50 [1]: > 79 µM (inactive)

CCN=C(S)Nc1cc(OC)c(NC(=O)c2ccco2)cc1OC
EC50 [5]: > 53 µM (inactive)
IC50 [6]: > 47.1 µM (inactive)

CCOC(=O)C1=C(CN2CCN(C(=O)c3ccco3)CC2)NC(=O)NC1c1ccc(OC)cc1 (configuration not stated)
EC50 [4]: > 195 µM (not active)

Cn1c(=O)n(C)c2cc(S(=O)(=O)Nc3cc(Cl)ccc3O)ccc21
EC50 [5]: > 53 µM (inactive)
IC50 [6]: > 47.1 µM (inactive)

COc1cc(-c2cnc3c(NC=O)cc(-c4ccsc4)cn23)cc(OC)c1OC
IC50 [1]: > 79 µM (inactive)

CCN(CCO)c1ncnc2c1sc1nc(C(C)C)c3c(c12)CC(C)(C)OC3
IC50 [1]: > 79 µM (inactive)

CCOC(=O)C(Cc1ccccc1)NC(=O)CCc1nnc2ccc(N3CCCC3)nn12 (configuration not stated)
EC50 [5]: > 53 µM (inactive)
IC50 [6]: > 47.1 µM (inactive)

COc1ccc(NC(=O)c2cc(-c3ccc(OC)c(OC)c3)nc3ccccc23)c(OC)c1
IC50 [1]: > 79 µM (inactive)

O=C(Nc1cccn(Cc2c(Cl)cccc2Cl)c1=O)c1c(Cl)cccc1Cl
EC50 [5]: > 53 µM (inactive)
IC50 [6]: 9.97 µM (active)

O=C(CSc1nccn1Cc1ccco1)Nc1cccc(F)c1
EC50 [4]: > 195 µM (not active)

Cc1ccc(Nc2nc(N)nc(O)c2N=O)cc1
IC50 [1]: 12.1 µM (active)

COC(=O)c1ccc(CNC(=O)COC(=O)CC23CC4CC(CC(Br)(C4)C2)C3)cc1
EC50 [5]: > 53 µM (inactive)
IC50 [6]: > 47.1 µM (inactive)

Cc1ccc(CN2CC(C(=O)NCCCSc3ccccc3)CC2=O)cc1 (configuration not stated)
EC50 [5]: > 53 µM (inactive)
IC50 [6]: > 47.1 µM (inactive)

COc1cccc(/C=N/NC(=O)c2oc3nc(-c4ccccc4)cc(-c4ccco4)c3c2N)c1
IC50 [1]: > 79 µM (inactive)

COc1ccc(OCc2cc(C(=O)NC3CCOC(C)(C)C3)no2)c2ccccc12 (configuration not stated)
EC50 [2]: 4.57 µM (active)
AC50 [3]: 4.88 µM (active)

COc1cc2c(c(OC)c1OC)-c1ccc(SC)c(=O)cc1C(NC(=O)C(F)(F)F)CC2 (configuration not stated)
AC50 [7]: < 0.26 µM (active)

COC(=O)c1ccc(C(c2c(C)n[nH]c2O)c2c(C)n[nH]c2O)cc1
EC50 [2]: 1.94 µM (active)
AC50 [3]: 3.35 µM (active)

COc1cccc(C(c2nnnn2Cc2ccccc2)N2CCC(n3c(O)nc4ccccc43)CC2)c1OC (configuration not stated)
AC50 [7]: 5.5 µM (active)

CCN(CC)C(=O)CSc1ncnc2c1cnn2-c1ccccc1
EC50 [5]: > 53 µM (inactive)
IC50 [6]: > 47.1 µM (inactive)

FC(F)(F)c1ccc2c(c1)N(CCCN1CCN(CCCl)CC1)c1ccccc1S2
EC50 [2]: 3.6 µM (active)
AC50 [3]: 9.54 µM (active)

CCN(CC(=O)Nc1cc(Cl)ccc1C)C(=O)CCc1nc(O)c2ccccc2n1
IC50 [1]: > 79 µM (inactive)
